Literature values in patent US20120302500A1, “USE OF SO[…] IN MENINGIOMA” (NOVARTIS AG, priority 2008, published 2012).
Starred links: 1 amine or outer side, 2 acyl side, 3 side chain; linkers in the order of their positions; H or OH if unused. Non-standard residues stand in square brackets, D forms with d. Residues, ends and D or L forms follow the SMILES beside them. Groups on a side chain read outwards from the residue. *: point of attachment. Ethylenediamine = C(CN[*:2])N[*:1]; Hyp = O=C(O)[C@@H]1C[C@@H](O)CN1; Phg = N[C@H](C(=O)O)c1ccccc1; CO = O=C([*:1])[*:2]; Bn = c1ccc(C*)cc1

Details: in vivo

NCCCC[C@@H]1NC(=O)[C@@H](Cc2c[nH]c3ccccc23)NC(=O)[C@H](c2ccccc2)NC(=O)[C@@H]2C[C@@H](OC(=O)NCCN)CN2C(=O)[C@H](Cc2ccccc2)NC(=O)[C@H](Cc2ccc(OCc3ccccc3)cc2)NC1=O [pasireotide, cyclo[{4-(NH2—C2H4—NH—CO—O—)Pro}-Phg-DTrp-Lys-Tyr(4-Bzl)-Phe]] (cyclo([Hyp]([CO-Ethylenediamine])[Phg][dW]KY(Bn)F))
half-life: 11 h
